Assay [1] concerns the target T1, membrane protein AqpZ (Escherichia coli, UniProt P60844). Briefly: nano-electrospray ionization mass spectrometry of AqpZ in detergent (FIG. 9). On the set-up: made in house; host or cells: bacterial culture (LB broth, ampicillin). Particulars: nESI, Q Exactive. How it is done: The samples were analysed using a Q-Exactive mass spectrometer using the following instrumental parameters: • Injection flatapole: 7.9 V • Inter flatapole lens: 6.9 V • Bent flatapole: 5.9 V • Transfer multipole: 4 V • Capillary voltage: 1.2 kV • Source temperature: 100° C. • Voltage applied to the C-trap entrance lens: 5.8 V • In-source trapping voltage: 0-200 V • Higher-energy collisional dissociation (HCD) cell voltage: 100-200 V • HCD cell pressure: 9×10^−10 mBar • Noise level parameter: 3 • Microscans: 10 • Resolution: 17,500
The suitability of the hybrid detergent in nano-electrospray ionization was investigated using a Q Exactive mass spectrometer. The results are shown in FIG. 9, along with results obtained using DDM and C8E4.

In assay [2] the target is T1, membrane protein AqpZ. Briefly: Stability of AqpZ in detergent solution after extraction from native membrane and IMAC. On the set-up: made in house. To be noted: extraction with 1% w/v detergent solution, IMAC purification. How it is done: Different solutions of the membrane protein AqpZ were prepared by extracting the protein from its native membrane using a 1% w/v detergent solution and then purifying the samples using IMAC. The following solutions were prepared: one containing the hybrid detergent, one containing DDM, one containing C8E4 and one containing a mixture of C8E4 and DDM. AgpZ precipitated from the solutions containing C8E4, even when DDM was also present.

T1 sequence (P60844 whole entry): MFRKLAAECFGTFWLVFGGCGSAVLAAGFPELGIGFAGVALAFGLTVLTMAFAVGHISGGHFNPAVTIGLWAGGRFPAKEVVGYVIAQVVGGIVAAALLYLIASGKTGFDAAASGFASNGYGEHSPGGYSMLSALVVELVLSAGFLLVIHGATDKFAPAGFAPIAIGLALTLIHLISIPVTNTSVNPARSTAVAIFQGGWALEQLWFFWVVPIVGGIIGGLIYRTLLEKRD

Take `CCCCCCCCCCCCO[C@@H]1O[C@H](CO)[C@@H](O[C@H]2O[C@H](CO)[C@@H](O)[C@H](O)[C@H]2O)[C@H](O)[C@H]1O` [DDM, n-dodecyl-β-D-maltoside]: at membrane protein AqpZ [1], the “level of delipidation of AqpZ” value was “relatively low levels of delipidation” and the “lipid-bound states of AqpZ detected” value was “detected”.

With `CCCCCCCCCCCCOCC(COCCOCCOCCOCCO)Oc1ccc(OCCOC2OC(CO)C(C3OC(CO)C(O)C(O)C3O)C(O)C2O)cc1` (stereo not drawn), the “stability of AqpZ in detergent solution” value at membrane protein AqpZ [2] is “stable”. Also, the “lipid-bound states of AqpZ detected” value on membrane protein AqpZ [1] is “detected”.

Turning to `CCCCCCCCOCCOCCOCCOCCO` [C8E4, tetraethylene glycol monooctyl ether], the “stability of AqpZ in detergent solution” value on membrane protein AqpZ [2] is recorded as “precipitated”. Besides, the “level of delipidation of AqpZ” value at membrane protein AqpZ [1] was “fully delipidating”.

Values taken from patent publication US20240264164A1, “DETERGENTS AND METHODS” (OXFORD UNIVERSITY INNOVATION LIMITED, priority 2021, published 2024).
